According to patent US20040127518A1, “Modulation of anxiety through blockade of anandamide hydrolysis” (priority 2002, published 2004):

Experiments:
FAAH = biological target: T1, FAAH (Rattus norvegicus, UniProt P97612); experiment: FAAH-catalyzed hydrolysis of [3H]anandamide by intact cortical neurons in primary cultures; type: cell-based; details: n=8, read-out: IC50, hydrolysis of exogenous [3H]anandamide
T1 sequence (P97612 1-579): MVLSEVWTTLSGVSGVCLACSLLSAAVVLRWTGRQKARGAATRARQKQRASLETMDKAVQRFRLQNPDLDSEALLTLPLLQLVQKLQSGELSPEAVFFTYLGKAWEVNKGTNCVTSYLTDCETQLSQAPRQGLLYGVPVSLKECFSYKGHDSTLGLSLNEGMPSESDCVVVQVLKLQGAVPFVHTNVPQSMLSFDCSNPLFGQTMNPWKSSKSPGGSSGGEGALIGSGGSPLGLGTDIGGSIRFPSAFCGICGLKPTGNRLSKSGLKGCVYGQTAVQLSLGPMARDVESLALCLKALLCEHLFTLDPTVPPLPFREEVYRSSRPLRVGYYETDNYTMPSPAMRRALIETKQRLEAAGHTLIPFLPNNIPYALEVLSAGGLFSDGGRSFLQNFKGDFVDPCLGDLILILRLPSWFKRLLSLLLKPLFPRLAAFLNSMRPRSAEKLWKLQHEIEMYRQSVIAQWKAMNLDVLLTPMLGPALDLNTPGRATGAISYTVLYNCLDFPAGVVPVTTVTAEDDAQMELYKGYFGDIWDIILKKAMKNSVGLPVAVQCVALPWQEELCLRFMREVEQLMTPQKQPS

Catalepsy = type: in vivo; details: UCM532 10 mg kg-1 i.p.; UCM597 0.3 mg kg-1 i.p.; data not shown
Description: We dissolved all compounds in saline/Tween 80/polyethylenglycol (90/5/5) and administered them by i.p. injection immediately before tests. We measured body temperature with a rectal probe (Type T, Copper-Costantan Thermocouple-Physitemp Instruments INC, Clifton, N.J.) connected to a digital thermometer (model BAT-12 Physitemp Instruments INC, Clifton, N.J.); and catalepsy using the procedure described in Tseng and Craft (Tseng, A. H. et al., Eur. J. Pharmacol., 430, 41-47 (2001)).

Elevated zero maze test = type: in vivo, rat; details: adult rats; i.p. 30 min before test; UCM532 5 and 10 mg kg-1; UCM597 0.05-0.1 mg kg-1
Method: (§1) We dissolved FAAH inhibitors and rimonabant in dimethylsulfoxide (DMSO)/saline (7/3 and 9/1, respectively); we administered FAAH inhibitors by i.p. injection 30 min before tests and rimonabant 30 min before UCM532. The elevated zero maze was comprised of a black Perspex annular platform (105 cm diameter, 10 cm width) elevated to 65 cm above ground level, divided equally into four quadrants (Bickerdike, M. J. et al., Eur. J. Pharmacol., 271, 403-411 (1994); Shepherd, J. K. et al., Psychopharmacology, 116, 56-64 (1994)). […] We placed the rats in a closed quadrant and video recorded them for 5-min periods, thoroughly cleaning the maze between sessions. […] Results are expressed as percent time in open quadrant/total time (percent time open). Results were analyzed by one-way ANOVA followed by Tukey's test. We recorded motor activity of each rat in an Opto-Varimex cage (Columbus Instruments, Columbus, Ohio) linked on-line to a computer and placed in a sound-attenuated room illuminated by a 20-W white light. The amount of time spent in ambulatory activity was analyzed using an Auto-Track software (Columbus Instruments, Columbus, Ohio) as described elsewhere (Ali, M. M. et al., Neurosci. Lett., 284, 57-60 (2000); Wedzony, K. et al., Neuropsychopharmacology, 23, 547-559 (2000)). […] We analyzed data by overall one-way ANOVA followed by Tukey's test for individual between-group comparisons. […]

[1] = Food intake in free-feeding rats; type: in vivo, rat; details: UCM532 10 mg kg-1 i.p.; UCM597 0.3 mg kg-1 i.p.; data not shown
Method: We recorded food intake in free-feeding rats by using an automated system (Scipro Inc., New York). Rats were acclimated to the test cages for three days prior to the tests. Each test began at the onset of the dark phase and lasted for 24 hours.

anandamide transport = experiment: [3H]anandamide transport assay in human astrocytoma cells
Description: We prepared cell fractions from rat brain homogenates, and assayed membrane FAAH activity and cytosol MGL activity using anandamide [ethanolamine-3H] (American Radiolabeled Chemicals, ARC (St. Louis Mo.), 60 Ci/mmol) and 2-mono-oleoyl-glycerol-[glycerol-1,2,3^−3H] (ARC, St. Louis Mo., 20 Ci/mmol), respectively, as substrates (Dinh, T. Proc. Natl. Acad. Sci. U.S.A. (2002)). We conducted [^3H]anandamide transport assays in human astrocytoma cells (Piomelli, D. et al., Proc. Natl. Acad. Sci. U.S.A., 96, 5802-5807 (1999)); CB1 and CB2 binding assays in rat cerebellar membranes and CB2-overexpressing Chinese hamster ovary cells (Receptor Biology-Perkin Elmer, Wellesley, Mass.), respectively, using [^3H]WIN-55212-2 (NEN-Dupont, Boston, Mass., 40-60 Ci/mmol) as a ligand (Devane, W. A. et al. Science, 258, 1946-1949 (1992)); cholinesterase assays with a commercial kit (Sigma, St. Louis, Mo.), using purified enzymes (electric eel acetylcholinesterase type V-S and horse serum cholinesterase; both from Sigma, St. Louis, Mo.) and following manufacturer's instructions.

[2] = Motor activity (Opto-Varimex cage); type: in vivo, rat
Method: as §1

[3] = tested on: panel of 21 receptors, ion channels and neurotransmitter transporters; experiment: Panel of 21 receptors, ion channels and neurotransmitter transporters; type: binding; details: 10 μM; data not shown

In the case of `CCCCNC(=O)Oc1ccc(OCc2ccccc2)cc1` [UCM532, n-Butylcarbamic acid 4-benzyloxyphenyl ester], the IC50 (FAAH) is reported as 214 ± 79 nM, the “catalepsy (rigid immobility)” value (Catalepsy) is reported as “no catalepsy” and the “percent time open, elevated zero maze” value (Elevated zero maze test) is reported as “anxiolytic-like responses”. The “hyperphagia (increased food intake)” value [1] was “no”, the “AT: maximal concentration of FAAH inhibitor tested” value (anandamide transport; Table 2) was greater than 300 µM and the “effect on anandamide transport (in words)” value (anandamide transport; human astrocytoma cells) was “no effect”. For the same molecule, the ambulation time ([2]; adult rats, 20 min session, ≧10 mg kg-1) was “modest decrease”, the pup movement ([2]; rat pups, 5 mg kg-1, data not shown) was “no effect” and the “interaction with panel of 21 receptors, ion channels and transporters” value [3] was “did not significantly interact”.
